Patent US20170368031A1, “SOLID DISPERSION FORMULATIONS OF ANTIVIRAL COMPOUNDS” (Merck Sharp & Dohme Corp., priority 2014, published 2017)

What was measured:
[1] = Human clinical biocomparison study: oral absorption from grazoprevir and Formulation 3 with and without pH-raising medication; conditions: in vivo, 100 mg grazoprevir/50 mg Compound I, healthy subjects
Method: The Formulation 2 spray dried intermediate was blended and roller compacted along with microcrystalline cellulose, lactose, croscarmellose sodium, sodium chloride, colloidal silicon dioxide, and magnesium stearate. Only half of the magnesium stearate was added prior to roller compaction. The second half of the magnesium stearate and the remaining croscarmellose sodium was added after roller compaction and the resulting powder mix was blended further.
The oral absorption obtained from grazoprevir and Formulation 3 with (Treatment 2) and without (Treatment 1) co-administration of a pH-raising medication was evaluated as part of human clinical study.

[2] = Human clinical biocomparison study: oral absorption of Formulation 1 with and without pH-raising medication; conditions: in vivo, 100 mg, healthy subjects
Method: FIG. 1 outlines the process used to make Formulation 1.
The oral absorption obtained from Formulation 1 with and without pH-modifying medications was evaluated as part of human clinical study. Formulation 1 was dosed by itself (Treatment 1) and in the presence of a medication that raises gastric pH (Treatment 2).

[3] = Treatment 1: grazoprevir and Formulation 3 without pH-raising medication
[4] = Treatment 1: Formulation 1 dosed by itself

AUC(0-inf) [1, 3]: 1.97 µM·h
Cmax [1, 3]: 102 nM
AUC(0-inf) ([1]; Treatment 2: grazoprevir and Formulation 3 with pH-raising medication): 1.79 µM·h
AUC(0-inf) [2, 4]: 3.77 µM·h
Cmax [2, 4]: 216 nM
AUC(0-inf) ([2]; Treatment 2: Formulation 1 with pH-raising medication): 1.57 µM·h
Compound: COC(=O)N[C@H](C(=O)N1CCC[C@H]1c1nc(-c2ccc3c(c2)O[C@@H](c2ccccc2)n2c-3cc3cc(-c4c[nH]c([C@@H]5CCCN5C(=O)[C@@H](NC(=O)OC)C(C)C)n4)ccc32)c[nH]1)C(C)C [Compound I, dimethyl N,N′-([(6S)-6-phenylindolo[1,2-c][1,3]benzoxazine-3,10-diyl]bis {1H-imidazole-5,2-diyl-(2S)-pyrrolidine-2,1-diyl[(2S)-3-methyl-l-oxobutane-1,2-diyl]})dicarbamate]
